For assay [1], the target named is T1, JAK2 (Homo sapiens, UniProt O60674).
T1 construct: GST; purchased Life Technologies
Nature of the assay: Biochemical JAK kinase assay (LanthaScreen), JAK2. The conditions noted are these: converted from pIC50 by Cheng-Prusoff; 3 μM ATP; read-out: JAK 2 pKi (converted). As to the method: (§1) A panel of four LanthaScreen JAK biochemical assays (JAK1, 2, 3 and Tyk2) were carried in a common kinase reaction buffer (50 mM HEPES, pH 7.5, 0.01% Brij-35, 10 mM MgCl2, and 1 mM EGTA). Recombinant GST-tagged JAK enzymes and a GFP-tagged STAT1 peptide substrate were obtained from Life Technologies.
(§2) Serially diluted compound was pre-incubated with each of the four JAK enzymes and the substrate in white 384-well microplates (Corning) at ambient temperature for 1 h. ATP was subsequently added to initiate the kinase reactions in 10 μL total volume, with 1% DMSO. […] The plates were allowed to incubate at ambient temperature for 1 h before being read on the EnVision reader (Perkin Elmer). Emission ratio signals (520 nm/495 nm) were recorded and utilized to calculate the percent inhibition values based on DMSO and background controls.
(§3) For dose-response analysis, percent inhibition data were plotted vs. compound concentrations, and IC50 values were determined from a 4-parameter robust fit model with the Prism software (GraphPad Software). Results were expressed as pIC50 (negative logarithm of IC50) and subsequently converted to pKi (negative logarithm of dissociation constant, Ki) using the Cheng-Prusoff equation.
A general note: Time-resolved FRET reads energy transfer from a long-lived donor to a nearby acceptor.

In assay [2] the target is T2, SYK (Homo sapiens, UniProt P43405).
T2 construct: made in house; host or cells: E. coli BL21-derived host (T7 phage) or HEK-293 cells
Nature of the assay: Kinome screen, SYK. The conditions noted are these: screened at 1 μM. It counts as binding. As to the method:
(§4) Compounds 1 and C-1 were screened against other kinases to evaluate their selectivity profile.
(§5) Kinase-tagged T7 phage strains were grown in parallel in 24-well blocks in an E. coli host derived from the BL21 strain. E. coli were grown to log-phase and infected with T7 phage from a frozen stock (multiplicity of infection=0.4) and incubated with shaking at 32° C. until lysis (90-150 minutes). The lysates were centrifuged (6,000×g) and filtered (0.2 μm) to remove cell debris. The remaining kinases were produced in HEK-293 cells and subsequently tagged with DNA for qPCR detection.
(§6) Streptavidin-coated magnetic beads were treated with biotinylated small molecule ligands for 30 minutes at room temperature to generate affinity resins for kinase assays. The liganded beads were blocked with excess biotin and washed with blocking buffer (SeaBlock (Pierce), 1% BSA, 0.05% Tween 20, 1 mM DTT) to remove unbound ligand and to reduce non-specific phage binding. Binding reactions were assembled by combining kinases, liganded affinity beads, and test compounds in 1× binding buffer (20% SeaBlock, 0.17×PBS, 0.05% Tween 20, 6 mM DTT). Test compounds were prepared as 40× stocks in 100% DMSO and directly diluted into the assay. All reactions were performed in polypropylene 384-well plates in a final volume of 0.04 ml. […] The kinase concentration in the eluates was measured by qPCR. […]

Assay [3] addresses T3, JAK1 (Homo sapiens, UniProt P23458).
T3 construct: GST; purchased Life Technologies
Nature of the assay: Biochemical JAK kinase assay (LanthaScreen), JAK1. The conditions noted are these: converted from pIC50 by Cheng-Prusoff; 25 μM ATP; read-out: JAK 1 pKi (converted). As to the method: as §1, §2, §3

Assay [4] addresses T4, PKAC-ALPHA (Homo sapiens, UniProt P17612).
T4 construct: made in house; host or cells: E. coli BL21-derived host (T7 phage) or HEK-293 cells
In words: Kinome screen, PKAC-ALPHA. It counts as binding. The conditions noted are these: screened at 1 μM. How it is done: as §4, §5, §6

In assay [5] the target is T5, Tyk2 (Homo sapiens, UniProt P29597).
T5 construct: GST; purchased Life Technologies
In words: Biochemical JAK kinase assay (LanthaScreen), Tyk2. The conditions noted are these: converted from pIC50 by Cheng-Prusoff; 10 μM ATP; read-out: Tyk 2 pKi (converted). How it is done: as §1, §2, §3

For assay [6], the system named is IL-2/anti-CD3 stimulated IFNγ in human PBMCs. In words: Inhibition of IL-2/anti-CD3 stimulated IFNγ in human PBMCs. It counts as cell-based. The conditions noted are these: PBMC, 24 h stimulation, ELISA, read-out: pIC50, inhibition of IL-2/anti-CD3 stimulated IFNγ (converted). As to the method: The potency of the test compound for inhibition of interleukin-2 (IL-2)/anti-CD3 stimulated interferon gamma (IFNγ) was measured in human peripheral blood mononuclear cells (PBMCs) isolated from human whole blood (Stanford Blood Center). Because IL-2 signals through JAK, this assay provides a measure of JAK cellular potency.
(1) Human peripheral blood mononuclear cells (PBMC) were isolated from human whole blood of healthy donors using a ficoll gradient. Cells were cultured in a 37° C., 5% CO2 humidified incubator in RPMI (Life Technologies) supplemented with 10% Heat Inactivated Fetal Bovine Serum (FBS, Life Technologies), 2 mM Glutamax (Life Technologies), 25 mM HEPES (Life Technologies) and 1× Pen/Strep (Life Technologies). Cells were seeded at 200,000 cells/well in media (50 μL) and cultured for 1 h. The compound was serially diluted in DMSO and then diluted another 500-fold (to a 2× final assay concentration) in media. […]
(2) After cytokine stimulation, cells were centrifuged at 500 g for 5 min and supernatants removed and frozen at −80° C. To determine the inhibitory potency of test compounds in response to IL-2/anti-CD3, supernatant IFNγ concentrations were measured via ELISA (R&D Systems). IC50 values were determined from analysis of the inhibition curves of concentration of IFNγ vs compound concentration. Data are expressed as pIC50 (negative decadic logarithm IC50) values.

In assay [7] the target is T6, SLK (Homo sapiens, UniProt Q9H2G2).
T6 construct: made in house; host or cells: E. coli BL21-derived host (T7 phage) or HEK-293 cells
In words: Kinome screen, SLK. In kind it is binding. The conditions noted are these: screened at 1 μM. How it is done:
as §4, §5, §6

In assay [8] the target is T7, PLK4 (Homo sapiens, UniProt O00444).
T7 construct: made in house; host or cells: E. coli BL21-derived host (T7 phage) or HEK-293 cells
In words: Kinome screen, PLK4. In kind it is binding. The conditions noted are these: screened at 1 μM. How it is done: as §4, §5, §6

Assay [9] addresses T8, JAK3 (Homo sapiens, UniProt P52333).
T8 construct: GST; purchased Life Technologies
In words: Biochemical JAK kinase assay (LanthaScreen), JAK3. The conditions noted are these: converted from pIC50 by Cheng-Prusoff; 1.6 μM ATP; read-out: JAK 3 pKi (converted). How it is done: as §1, §2, §3

Assay [10] has as its target T9, GSK3B (Homo sapiens, UniProt P49841).
T9 construct: made in house; host or cells: E. coli BL21-derived host (T7 phage) or HEK-293 cells
Nature of the assay: Kinome screen, GSK3B. It counts as binding. The conditions noted are these: screened at 1 μM. As to the method:
as §4, §5, §6

T3 sequence (P23458 whole entry): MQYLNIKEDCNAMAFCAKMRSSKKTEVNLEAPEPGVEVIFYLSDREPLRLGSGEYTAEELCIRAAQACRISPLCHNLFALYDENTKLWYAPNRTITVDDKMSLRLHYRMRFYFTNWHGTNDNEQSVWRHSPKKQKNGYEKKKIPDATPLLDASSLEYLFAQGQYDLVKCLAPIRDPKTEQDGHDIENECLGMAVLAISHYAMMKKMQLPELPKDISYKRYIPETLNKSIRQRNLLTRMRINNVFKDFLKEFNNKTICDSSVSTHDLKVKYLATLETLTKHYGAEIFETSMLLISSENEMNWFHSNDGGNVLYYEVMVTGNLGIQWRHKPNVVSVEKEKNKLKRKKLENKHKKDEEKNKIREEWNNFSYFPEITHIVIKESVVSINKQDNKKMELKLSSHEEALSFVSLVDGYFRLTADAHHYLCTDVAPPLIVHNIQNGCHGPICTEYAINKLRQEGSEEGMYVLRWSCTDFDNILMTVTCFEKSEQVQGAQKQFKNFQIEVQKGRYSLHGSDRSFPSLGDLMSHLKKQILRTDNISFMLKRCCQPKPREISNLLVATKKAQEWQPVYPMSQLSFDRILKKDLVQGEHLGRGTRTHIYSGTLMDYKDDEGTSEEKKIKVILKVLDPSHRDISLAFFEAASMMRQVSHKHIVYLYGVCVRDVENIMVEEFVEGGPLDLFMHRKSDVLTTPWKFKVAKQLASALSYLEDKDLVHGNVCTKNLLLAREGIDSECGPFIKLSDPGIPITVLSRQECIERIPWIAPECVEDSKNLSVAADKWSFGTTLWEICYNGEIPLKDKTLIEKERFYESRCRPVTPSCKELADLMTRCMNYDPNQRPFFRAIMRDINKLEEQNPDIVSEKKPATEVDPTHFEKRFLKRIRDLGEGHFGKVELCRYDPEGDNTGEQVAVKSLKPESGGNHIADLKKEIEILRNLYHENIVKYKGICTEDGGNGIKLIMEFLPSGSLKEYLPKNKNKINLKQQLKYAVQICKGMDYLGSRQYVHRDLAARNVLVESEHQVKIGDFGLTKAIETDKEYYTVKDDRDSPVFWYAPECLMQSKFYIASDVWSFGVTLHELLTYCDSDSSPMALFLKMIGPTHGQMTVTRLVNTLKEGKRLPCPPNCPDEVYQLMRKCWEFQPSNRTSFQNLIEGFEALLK
T9 sequence (P49841 whole entry): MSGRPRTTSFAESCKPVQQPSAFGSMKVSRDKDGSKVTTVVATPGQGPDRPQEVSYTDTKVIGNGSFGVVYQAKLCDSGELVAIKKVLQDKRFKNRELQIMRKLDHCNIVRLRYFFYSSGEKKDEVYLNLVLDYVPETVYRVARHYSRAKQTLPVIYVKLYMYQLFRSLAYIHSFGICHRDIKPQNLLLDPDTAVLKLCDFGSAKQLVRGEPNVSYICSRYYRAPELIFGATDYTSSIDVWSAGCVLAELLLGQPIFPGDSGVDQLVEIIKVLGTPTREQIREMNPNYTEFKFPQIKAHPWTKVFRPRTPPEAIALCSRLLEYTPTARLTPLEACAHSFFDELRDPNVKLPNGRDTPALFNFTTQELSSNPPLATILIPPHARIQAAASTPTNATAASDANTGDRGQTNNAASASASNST
T8 sequence (P52333 whole entry): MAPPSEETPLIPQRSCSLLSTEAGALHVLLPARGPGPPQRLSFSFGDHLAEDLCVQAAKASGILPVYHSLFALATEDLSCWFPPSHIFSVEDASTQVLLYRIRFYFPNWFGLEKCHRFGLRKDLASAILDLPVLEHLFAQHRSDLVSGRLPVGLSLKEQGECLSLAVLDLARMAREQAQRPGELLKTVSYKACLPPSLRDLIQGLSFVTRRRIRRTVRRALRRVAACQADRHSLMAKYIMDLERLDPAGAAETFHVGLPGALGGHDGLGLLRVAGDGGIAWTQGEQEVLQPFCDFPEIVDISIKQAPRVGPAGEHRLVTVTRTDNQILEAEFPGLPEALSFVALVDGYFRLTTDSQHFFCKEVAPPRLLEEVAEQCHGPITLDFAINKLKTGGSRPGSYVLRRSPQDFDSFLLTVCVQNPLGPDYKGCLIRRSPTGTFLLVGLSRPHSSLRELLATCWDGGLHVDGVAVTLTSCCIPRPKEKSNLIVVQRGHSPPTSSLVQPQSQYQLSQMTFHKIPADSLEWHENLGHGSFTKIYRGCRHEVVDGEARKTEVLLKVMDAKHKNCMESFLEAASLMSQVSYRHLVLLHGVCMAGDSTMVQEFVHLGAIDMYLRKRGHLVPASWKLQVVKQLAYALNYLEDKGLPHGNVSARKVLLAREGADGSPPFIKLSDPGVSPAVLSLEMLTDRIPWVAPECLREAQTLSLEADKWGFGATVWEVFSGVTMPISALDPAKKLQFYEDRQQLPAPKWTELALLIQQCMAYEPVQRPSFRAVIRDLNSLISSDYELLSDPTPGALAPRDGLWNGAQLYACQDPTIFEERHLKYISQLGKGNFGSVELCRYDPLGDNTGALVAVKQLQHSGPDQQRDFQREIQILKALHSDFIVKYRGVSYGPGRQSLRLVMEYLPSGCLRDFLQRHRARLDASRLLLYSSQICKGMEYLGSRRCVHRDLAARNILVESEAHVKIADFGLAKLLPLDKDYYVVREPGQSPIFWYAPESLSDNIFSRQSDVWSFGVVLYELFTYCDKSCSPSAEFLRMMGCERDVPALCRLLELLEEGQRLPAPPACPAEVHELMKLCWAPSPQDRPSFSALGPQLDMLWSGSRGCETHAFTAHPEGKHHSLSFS
T6 sequence (Q9H2G2 whole entry): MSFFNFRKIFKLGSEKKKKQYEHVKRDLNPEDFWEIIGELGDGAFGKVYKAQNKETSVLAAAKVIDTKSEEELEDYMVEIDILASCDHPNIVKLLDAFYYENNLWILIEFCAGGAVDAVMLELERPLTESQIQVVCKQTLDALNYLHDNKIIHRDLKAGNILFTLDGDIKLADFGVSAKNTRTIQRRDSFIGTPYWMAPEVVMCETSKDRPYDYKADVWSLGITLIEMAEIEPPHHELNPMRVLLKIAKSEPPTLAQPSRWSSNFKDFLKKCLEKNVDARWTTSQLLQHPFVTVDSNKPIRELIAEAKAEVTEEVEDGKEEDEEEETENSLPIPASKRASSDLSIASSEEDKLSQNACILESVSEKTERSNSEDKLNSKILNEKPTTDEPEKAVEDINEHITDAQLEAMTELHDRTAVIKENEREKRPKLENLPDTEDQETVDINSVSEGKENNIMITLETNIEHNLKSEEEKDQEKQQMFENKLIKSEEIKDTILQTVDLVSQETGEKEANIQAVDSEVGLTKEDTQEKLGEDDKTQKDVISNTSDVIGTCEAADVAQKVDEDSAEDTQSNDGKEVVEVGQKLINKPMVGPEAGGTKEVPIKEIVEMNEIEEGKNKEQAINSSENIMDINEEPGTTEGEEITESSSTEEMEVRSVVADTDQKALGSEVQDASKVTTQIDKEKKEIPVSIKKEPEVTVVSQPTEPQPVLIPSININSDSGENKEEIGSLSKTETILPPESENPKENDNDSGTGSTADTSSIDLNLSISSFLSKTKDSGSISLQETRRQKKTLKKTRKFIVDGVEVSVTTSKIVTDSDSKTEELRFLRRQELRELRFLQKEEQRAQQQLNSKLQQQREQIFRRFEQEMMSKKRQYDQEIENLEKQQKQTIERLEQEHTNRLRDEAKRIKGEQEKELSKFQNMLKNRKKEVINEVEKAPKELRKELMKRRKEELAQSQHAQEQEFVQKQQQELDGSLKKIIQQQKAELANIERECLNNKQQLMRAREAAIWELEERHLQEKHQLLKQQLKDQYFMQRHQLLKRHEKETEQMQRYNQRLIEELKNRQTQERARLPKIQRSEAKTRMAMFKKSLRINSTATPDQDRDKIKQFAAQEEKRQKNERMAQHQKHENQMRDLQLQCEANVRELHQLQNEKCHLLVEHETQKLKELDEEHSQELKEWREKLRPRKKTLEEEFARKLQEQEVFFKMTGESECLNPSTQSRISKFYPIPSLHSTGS
T1 sequence (O60674 whole entry): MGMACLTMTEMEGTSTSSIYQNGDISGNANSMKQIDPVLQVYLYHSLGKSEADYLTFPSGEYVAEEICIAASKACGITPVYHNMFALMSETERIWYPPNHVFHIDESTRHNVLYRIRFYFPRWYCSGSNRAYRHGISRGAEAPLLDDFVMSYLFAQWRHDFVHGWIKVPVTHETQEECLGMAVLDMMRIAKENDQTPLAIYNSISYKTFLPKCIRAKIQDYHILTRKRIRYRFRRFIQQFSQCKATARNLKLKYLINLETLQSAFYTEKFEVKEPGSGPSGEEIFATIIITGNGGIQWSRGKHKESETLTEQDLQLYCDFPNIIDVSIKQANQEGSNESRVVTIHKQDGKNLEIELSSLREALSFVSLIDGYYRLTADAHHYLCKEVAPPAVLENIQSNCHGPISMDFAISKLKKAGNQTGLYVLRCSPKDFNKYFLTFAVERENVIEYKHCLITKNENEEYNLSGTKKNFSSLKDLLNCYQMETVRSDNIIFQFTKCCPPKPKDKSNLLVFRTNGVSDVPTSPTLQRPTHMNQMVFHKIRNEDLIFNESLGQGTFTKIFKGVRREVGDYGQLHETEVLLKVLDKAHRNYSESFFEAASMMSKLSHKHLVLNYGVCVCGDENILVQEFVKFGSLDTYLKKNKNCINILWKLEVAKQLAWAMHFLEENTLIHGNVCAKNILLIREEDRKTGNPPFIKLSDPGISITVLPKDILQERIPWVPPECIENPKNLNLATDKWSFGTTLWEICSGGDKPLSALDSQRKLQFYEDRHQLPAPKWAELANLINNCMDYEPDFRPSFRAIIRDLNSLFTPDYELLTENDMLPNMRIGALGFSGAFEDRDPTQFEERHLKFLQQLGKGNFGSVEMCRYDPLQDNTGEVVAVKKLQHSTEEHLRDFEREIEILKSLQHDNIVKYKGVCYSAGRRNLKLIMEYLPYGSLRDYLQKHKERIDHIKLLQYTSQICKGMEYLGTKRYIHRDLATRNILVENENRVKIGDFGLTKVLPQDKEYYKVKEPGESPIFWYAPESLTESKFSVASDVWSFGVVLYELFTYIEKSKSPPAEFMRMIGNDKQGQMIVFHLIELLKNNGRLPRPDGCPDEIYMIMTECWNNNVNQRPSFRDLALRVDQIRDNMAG

As to `CCc1cc(O)c(F)cc1-c1cc(F)c2c(-c3nc4c([nH]3)CCN(C(=O)[C@]35C[C@H]3CCN5)C4)n[nH]c2c1` [Compound 1, (1S,5R)-2-azabicyclo[3.1.0]hexan-1-yl(2-(6-(2-ethyl-5-fluoro-4-hydroxyphenyl)-4-fluoro-1H-indazol-3-yl)-6,7-dihydro-3H-imidazo[4,5-c]pyridin-5(4H)-yl)methanone], the Ki was 0.0631 nM in assay [1], 0.126 nM in [3], 2.51 nM in assay [5] and 0.251 nM in [9]. Moreover, the inhibition (commonly the percentage by which the read-out fell short of the control) at 1 µM was 44% in assay [2]; 22% in assay [4]; 100% in [7]; 39% in assay [8]; 32% in [10]. Moreover, the IC50 in assay [6] was 200 nM.

For the origin of these results see US10968222B2, “2-azabicyclo hexane JAK inhibitor compound” (THERAVANCE BIOPHARMA R&D IP, LLC, priority 2018, dated 2021).
